Laboratory results taken from article PMC10648927, “Examining the activity of cefepime-taniborbactam against Burkholderia cepacia complex and Burkholderia gladioli isolated from cystic fibrosis patients in the United States” (Antimicrobial Agents and Chemotherapy, 2023).
Converted amounts (≈) assume the structure as drawn.

Experiments:
Parameters in all cases: agar dilution MIC, growth inhibition of clinical Burkholderia isolates
B. dolosa AU12872 = system: T1, B. dolosa AU12872; assay: microbe, parasite or virus in culture; conditions: Burkholderia dolosa, AU12872
T1 construct: AU12872
Text: (§1) We evaluated the activity of cefepime-taniborbactam against a panel of 140 Bcc clinical isolates (i.e., species ambifaria, arboris, cenocepacia, cepacia, contaminans, diffusa, dolosa, multivorans, pseudomultivorans, pyrrocinia, seminalis, stabilis, ubonensis, and vietnamiensis) and 10 B. gladioli from the Burkholderia cepacia Research Laboratory and Repository (University of Michigan) ([22], [25], [31]) (Supplementary Material, Tables S1 and S2). K. pneumoniae ATCC 700603 carrying bla SHV-18 and K. pneumoniae ATCC BAA-1705 harboring bla KPC strains were used as controls for β-lactam and β-lactamase inhibitor integrity; all controls tested within the anticipated quality control ranges (Table S3). Minimum inhibitory concentration (MIC) results were interpreted using Clinical Laboratory Standards Institute (CLSI) breakpoints, where available ([32]). […] An alternative cefepime-taniborbactam provisional susceptible breakpoint of ≤16 µg/mL is supported by in vivo efficacy data from neutropenic murine infection models (thigh, complicated urinary tract, and lung) ([15] [–] [17]) and data from safety and pharmacokinetics studies in human volunteers ([33], [34]). The cefepime-taniborbactam antimicrobial activity was compared to cefepime, meropenem, meropenem-vaborbactam, and levofloxacin, to data published for first-line agents (e.g., ceftazidime and trimethoprim-sulfamethoxazole) and to those recommended by the CLSI for clinical testing (e.g., minocycline) against the Bcc and B. gladioli panel ([22], [32]). Of note, the MICs of all these agents were determined by the agar dilution method, which alongside broth microdilution, are recommended by the CLSI to assess the antimicrobial susceptibility of Bcc isolates ([32]).

B. cepacia AU27816 = system: T2, B. cepacia AU27816; assay: microbe, parasite or virus in culture; conditions: Burkholderia cepacia, AU27816
T2 construct: AU27816
Text: as §1

B. multivorans AU19659 = system: T3, B. multivorans AU19659; assay: microbe, parasite or virus in culture; conditions: Burkholderia multivorans, AU19659
T3 construct: AU19659
Text: as §1

B. multivorans AU11233 = system: T4, B. multivorans AU11233; assay: microbe, parasite or virus in culture; conditions: Burkholderia multivorans, AU11233
T4 construct: AU11233
Text: as §1

B. vietnamiensis AU30387 = system: T5, B. vietnamiensis AU30387; assay: microbe, parasite or virus in culture; conditions: Burkholderia vietnamiensis, AU30387
T5 construct: AU30387
Text: as §1

B. cenocepacia AU14381 = system: T6, B. cenocepacia AU14381; assay: microbe, parasite or virus in culture; conditions: Burkholderia cenocepacia, AU14381
T6 construct: AU14381
Text: as §1

B. vietnamiensis AU26096 = system: T7, B. vietnamiensis AU26096; assay: microbe, parasite or virus in culture; conditions: Burkholderia vietnamiensis, AU26096
T7 construct: AU26096
Text: as §1

B. vietnamiensis AU3997 = system: T8, B. vietnamiensis AU3997; assay: microbe, parasite or virus in culture; conditions: Burkholderia vietnamiensis, AU3997
T8 construct: AU3997
Text: as §1

B. vietnamiensis AU28056 = system: T9, B. vietnamiensis AU28056; assay: microbe, parasite or virus in culture; conditions: Burkholderia vietnamiensis, AU28056
T9 construct: AU28056
Text: as §1

B. gladioli AU1009 = system: T10, B. gladioli AU1009; assay: organism not typed
T10 construct: AU1009
Text: as §1

B. vietnamiensis AU19457 = system: T11, B. vietnamiensis AU19457; assay: microbe, parasite or virus in culture; conditions: Burkholderia vietnamiensis, AU19457
T11 construct: AU19457
Text: as §1

B. multivorans AU13919 = system: T12, B. multivorans AU13919; assay: microbe, parasite or virus in culture; conditions: Burkholderia multivorans, AU13919
T12 construct: AU13919
Text: as §1

B. multivorans AU14371 = system: T13, B. multivorans AU14371; assay: microbe, parasite or virus in culture; conditions: Burkholderia multivorans, AU14371
T13 construct: AU14371
Text: as §1

B. cepacia AU11420 = system: T14, B. cepacia AU11420; assay: microbe, parasite or virus in culture; conditions: Burkholderia cepacia, AU11420
T14 construct: AU11420
Text: as §1

B. multivorans AU20929 = system: T15, B. multivorans AU20929; assay: microbe, parasite or virus in culture; conditions: Burkholderia multivorans, AU20929
T15 construct: AU20929
Text: as §1

B. vietnamiensis AU21549 = system: T16, B. vietnamiensis AU21549; assay: microbe, parasite or virus in culture; conditions: Burkholderia vietnamiensis, AU21549
T16 construct: AU21549
Text: as §1

B. multivorans AU19729 = system: T17, B. multivorans AU19729; assay: microbe, parasite or virus in culture; conditions: Burkholderia multivorans, AU19729
T17 construct: AU19729
Text: as §1

B. cenocepacia AU11339 = system: T18, B. cenocepacia AU11339; assay: microbe, parasite or virus in culture; conditions: Burkholderia cenocepacia, AU11339
T18 construct: AU11339
Text: as §1

B. multivorans AU29198 = system: T19, B. multivorans AU29198; assay: microbe, parasite or virus in culture; conditions: Burkholderia multivorans, AU29198
T19 construct: AU29198
Text: as §1

B. ubonensis AU7314 = system: T20, B. ubonensis AU7314; assay: organism not typed
T20 construct: AU7314
Text: as §1

B. cenocepacia AU19684 = system: T21, B. cenocepacia AU19684; assay: microbe, parasite or virus in culture; conditions: Burkholderia cenocepacia, AU19684
T21 construct: AU19684
Text: as §1

B. cenocepacia AU141094 = system: T22, B. cenocepacia AU141094; assay: microbe, parasite or virus in culture; conditions: Burkholderia cenocepacia, AU141094
T22 construct: AU141094
Text: as §1

SMILES | MIC (B. dolosa AU12872) [µg/mL] | MIC (B. cepacia AU27816) [µg/mL] | MIC (B. multivorans AU19659) [µg/mL] | MIC (B. multivorans AU11233) [µg/mL] | MIC (B. vietnamiensis AU30387) [µg/mL] | MIC (B. cenocepacia AU14381) [µg/mL] | MIC (B. vietnamiensis AU26096) [µg/mL] | MIC (B. vietnamiensis AU3997) [µg/mL] | MIC (B. vietnamiensis AU28056) [µg/mL] | MIC (B. gladioli AU1009) [µg/mL] | MIC (B. vietnamiensis AU19457) [µg/mL] | MIC (B. multivorans AU13919) [µg/mL] | MIC (B. multivorans AU14371) [µg/mL] | MIC (B. cepacia AU11420) [µg/mL] | MIC (B. multivorans AU20929) [µg/mL] | MIC (B. vietnamiensis AU21549) [µg/mL] | MIC (B. multivorans AU19729) [µg/mL] | MIC (B. cenocepacia AU11339) [µg/mL] | MIC (B. multivorans AU29198) [µg/mL] | MIC (B. ubonensis AU7314) [µg/mL] | also measured
CO/N=C(\C(=O)N[C@@H]1C(=O)N2C(C(=O)[O-])=C(C[N+]3(C)CCCC3)CS[C@H]12)c1csc(N)n1 [cefepime] | > 32 | 16 (≈ 33.3 µM) | > 32 | > 32 | 2 (≈ 4.16 µM) | 32 (≈ 66.6 µM) | 32 (≈ 66.6 µM) | 8 (≈ 16.6 µM) | 16 (≈ 33.3 µM) | 16 (≈ 33.3 µM) | > 32 | 8 (≈ 16.6 µM) | 8 (≈ 16.6 µM) | > 32 | 8 (≈ 16.6 µM) | 2 (≈ 4.16 µM) | > 32 | 16 (≈ 33.3 µM) | > 32 | > 32 | MIC (B. cenocepacia AU19684): > 32 µg/mL; MIC (B. cenocepacia AU141094): > 32 µg/mL
C[C@H]1COc2c(N3CCN(C)CC3)c(F)cc3c(=O)c(C(=O)O)cn1c23 [levofloxacin] | > 32 | 4 (≈ 11.1 µM) | 16 (≈ 44.3 µM) | 16 (≈ 44.3 µM) | 2 (≈ 5.53 µM) | > 32 | > 32 | 8 (≈ 22.1 µM) | 8 (≈ 22.1 µM) | 0.5 (≈ 1.38 µM) | 16 (≈ 44.3 µM) | 2 (≈ 5.53 µM) | 2 (≈ 5.53 µM) | 4 (≈ 11.1 µM) | 4 (≈ 11.1 µM) | 4 (≈ 11.1 µM) | 16 (≈ 44.3 µM) | 2 (≈ 5.53 µM) | 8 (≈ 22.1 µM) | 4 (≈ 11.1 µM) | MIC (B. cenocepacia AU19684): > 32 µg/mL; MIC (B. cenocepacia AU141094): > 32 µg/mL
C[C@@H](O)[C@H]1C(=O)N2C(C(=O)O)=C(S[C@@H]3CN[C@H](C(=O)N(C)C)C3)[C@H](C)[C@H]12 [meropenem] | 32 (≈ 83.4 µM) | 4 (≈ 10.4 µM) | 32 (≈ 83.4 µM) | 8 (≈ 20.9 µM) | 0.25 (≈ 0.652 µM) | 4 (≈ 10.4 µM) | 8 (≈ 20.9 µM) | 1 (≈ 2.61 µM) | 4 (≈ 10.4 µM) | 1 (≈ 2.61 µM) | 4 (≈ 10.4 µM) | 8 (≈ 20.9 µM) | 4 (≈ 10.4 µM) | 8 (≈ 20.9 µM) | 8 (≈ 20.9 µM) | 0.5 (≈ 1.3 µM) | 16 (≈ 41.7 µM) | 2 (≈ 5.22 µM) | 16 (≈ 41.7 µM) | 32 (≈ 83.4 µM) | MIC (B. cenocepacia AU19684): 8 µg/mL (≈ 20.9 µM); MIC (B. cenocepacia AU141094): 16 µg/mL (≈ 41.7 µM)
